Assays:
[1] = tested on: BrdNut mutated cell lines (HCC2429, TY-82, 690100, 143100); assay: Proliferation assay on Brd-4-Nut mutated versus wild type cell lines (FIG. 4); assay type: cell-based; settings: mutated: HCC2429, TY-82, 690100, 143100, wild type: Hela, HCC366, H460, HCC1143, hPBMCs
Protocol: The proliferation results are presented as IC50 in μM. First, the anti-proliferative effect of CDK9 inhibitors is much more pronounced on BrdNut mutated cell lines (=sensitive cell lines).
Cell lines were maintained in RPMI 1640 cell culture medium+glutamine (PAN Biotech GmbH, Aidenbach, Germany; order no. P04-22100; P04-05500) supplemented with 10% fetal calf serum “Gold” (PAA Laboratories GmbH, Pasching, Austria; order no. A15-151) and grown in a humidified atmosphere at 37° C., 5% CO2. As a first step, an optimal cell density for each cell line was determined to guarantee linearity. For viability assays with compounds, cells were then seeded at a density of 200 to 1000 per well in 25 μl in 384-well plates (Greiner Bio-One, Frickenhausen, Germany; order no. 781080). After overnight incubation at 37° C./5% CO2, 25 nl or 75 nl compounds were added to each sample well by using BIOMEK FX^P Laboratory Automation Workstation (Beckman Coulter, USA). Wells with cells and 0.1% or 0.3% DMSO in culture medium were used as positive controls, wells with cells and 10 μM staurosporine (Selleck Chemicals, Huston, USA) in culture medium were used as negative controls. […] Luminescence was measured by Envision Plate Reader (Perkin Elmer, USA). […]

CDK9/CyclinT1 = biological target: T1, CDK9/CyclinT1 (Homo sapiens, UniProt P50750); assay: Lance Ultra KinaSelect Assay, CDK9; assay type: biochemical; settings: FIG. 2
T1 construct: purchased Invitrogen
T1 sequence (P50750 whole entry): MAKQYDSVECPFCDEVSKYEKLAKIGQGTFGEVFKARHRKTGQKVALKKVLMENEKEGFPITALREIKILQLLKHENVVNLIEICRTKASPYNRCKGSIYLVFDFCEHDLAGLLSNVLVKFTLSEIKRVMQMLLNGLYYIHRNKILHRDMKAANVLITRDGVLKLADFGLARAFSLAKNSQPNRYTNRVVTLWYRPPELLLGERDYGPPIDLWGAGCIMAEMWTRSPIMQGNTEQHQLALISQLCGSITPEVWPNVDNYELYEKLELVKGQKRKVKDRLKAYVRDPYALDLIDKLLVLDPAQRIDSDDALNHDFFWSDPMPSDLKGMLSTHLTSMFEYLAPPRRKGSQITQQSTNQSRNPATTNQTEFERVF
T1 sequence (O60563 whole entry partner): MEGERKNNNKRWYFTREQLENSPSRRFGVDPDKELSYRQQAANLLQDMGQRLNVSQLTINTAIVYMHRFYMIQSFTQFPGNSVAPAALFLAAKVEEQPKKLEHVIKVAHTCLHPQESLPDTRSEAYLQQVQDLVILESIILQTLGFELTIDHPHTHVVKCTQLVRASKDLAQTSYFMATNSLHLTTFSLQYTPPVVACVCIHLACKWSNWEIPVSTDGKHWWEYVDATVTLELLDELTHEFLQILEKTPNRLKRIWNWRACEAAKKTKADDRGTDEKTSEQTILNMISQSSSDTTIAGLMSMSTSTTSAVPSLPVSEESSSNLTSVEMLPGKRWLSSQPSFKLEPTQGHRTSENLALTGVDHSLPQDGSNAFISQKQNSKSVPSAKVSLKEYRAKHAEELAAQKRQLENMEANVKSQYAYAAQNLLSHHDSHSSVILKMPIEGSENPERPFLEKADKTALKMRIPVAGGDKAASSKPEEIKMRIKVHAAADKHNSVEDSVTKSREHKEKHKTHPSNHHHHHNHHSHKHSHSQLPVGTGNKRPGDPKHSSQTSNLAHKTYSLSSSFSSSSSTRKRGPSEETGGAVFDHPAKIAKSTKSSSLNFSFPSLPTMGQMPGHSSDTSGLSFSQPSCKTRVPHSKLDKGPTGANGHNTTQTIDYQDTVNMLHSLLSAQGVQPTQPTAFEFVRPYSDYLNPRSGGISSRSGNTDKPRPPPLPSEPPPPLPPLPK
Description: (§1) The principle behind this enzymatic assay is based upon the phosphorylation of the Ulight-Peptide Substrat. It is detected by using a specific EU-labeled anti-phospho peptide antibody. […] Binding of an inhibitor to the kinase prevents phosphorylation of the Ulight-MBP Substrat, resulting in a loss of FRET.
as §1
This compound predilution was then serial diluted 1:3 over 8 steps in DMSO and briefly spun down. Each compound solution was now diluted 1:20 in Enzymatic Buffer (HEPES: 50 mM, pH: 7.5; MgCl2: 10 mM; EGTA: 1 mM; DTT: 2 mM; Tween-20: 0.01%), mixed thoroughly and spun down.

HCC2429 cells = assay: Proliferation / cell viability assay (Cell Titer Glo) on HCC2429; assay type: cell-based; settings: FIG. 1; for IC50: 72 h incubation, ATP content by CTG; for effect on proliferation of HCC2429 cells, in words: dose response experiments
Protocol: Proliferation assays were performed as described below under materials and methods. […] (Cpd B1 and Ro-3306) were applied at concentrations between 30 and 0.0137 μM. After 72 h incubation with compounds ATP content/proliferation was determined employing CTG (Promega). Relative proliferation values (compared to vehicle control) were used to calculate IC50 values (Excel fit; algorithm #205). IC50s of the respective compound (Y-axis; logarithmic scale) on proliferation of various cell lines (X-axis) are depicted in black bars. White bars indicate that an IC50 could not be determined due to too low activity and therefore was higher than the highest applied concentration in the assays (30 μM). IC50s of compounds on CDK9 inhibitor sensitive cell line HCC2429 are presented in grey bars.
Cell lines were maintained in RPMI 1640 cell culture medium+glutamine (PAN Biotech GmbH, Aidenbach, Germany; order no. P04-22100; P04-05500) supplemented with 10% fetal calf serum “Gold” (PAA Laboratories GmbH, Pasching, Austria; order no. A15-151) and grown in a humidified atmosphere at 37° C., 5% CO2. As a first step, an optimal cell density for each cell line was determined to guarantee linearity. For viability assays with compounds, cells were then seeded at a density of 200 to 1000 per well in 25 μl in 384-well plates (Greiner Bio-One, Frickenhausen, Germany; order no. 781080). After overnight incubation at 37° C./5% CO2, 25 nl or 75 nl compounds were added to each sample well by using BIOMEK FX^P Laboratory Automation Workstation (Beckman Coulter, USA). Wells with cells and 0.1% or 0.3% DMSO in culture medium were used as positive controls, wells with cells and 10 μM staurosporine (Selleck Chemicals, Huston, USA) in culture medium were used as negative controls. Upon incubation with compounds for 72 h at 37° C./5% CO2 25 μl Cell Titer Glo reagent (Promega, Madison, USA, order no. G7573; 1:2 diluted with cell culture medium) was added to each well to determine cell viability. 384well-plates were placed for 2 min on an orbital microplate shaker and incubated for further 10 min at room temperature resulting in a stabilization of light signal. Luminescence was measured by Envision Plate Reader (Perkin Elmer, USA). IC50 values were calculated with the software Excel Fit (IDBS, Guildford, UK) from 3-fold dilution series comprising 8 concentrations in duplicates.

CDK9/CycT = biological target: T2, CDK9/CycT (Homo sapiens, UniProt P50750); assay: Radiometric protein kinase assay (33PanQinase Activity Assay), kinase selectivity; assay type: biochemical; settings: 23 different kinases, 10 μM compound versus DMSO control; FIG. 3
T2 construct: purchased ProQinase
T2 sequence (P50750 whole entry): as the sequence (P50750 whole entry) above
T2 sequence (O60563 whole entry partner): as the sequence (O60563 whole entry partner) above
Protocol: A radiometric protein kinase assay (33PanQinase® Activity Assay) was used for measuring the kinase activity of protein kinases employing exemplary CDK9 inhibitors to be used in the present invention (see FIG. 3). […] Activities of other kinases are not inhibited.
A similar experimental procedure is performed when the resulting activity within ^33PanQinase® assay is done. In advance buffers are prepared but in this case the pipetting sequence is first ATP solution diluted with assay buffer, DMSO or compound solution. The reaction (1 h at 30° C.) is started by addition of a substrate-kinase mix. During the incubation the kinase phosphorylates the substrate (different for each kinase). Due to the fact that the ATP solution contains ^33P-labelled ATP the substrate proteins are labeled with ^33P. The reaction is stopped by addition of excess H3PO4. If the reaction is performed in plates binding substrate proteins, said plates are washed to reduce unspecific signals (mainly not used ATP). […] Therefore, the incorporated radioactivity is detected by scintillation counting. Data is evaluated, processed and analyzed as described for the LANCE assays. […]
The reaction cocktails were incubated at 30° C. for 60 minutes. […] Incorporation of 33Pi (counting of “cpm”) was determined with a microplate scintillation counter (Microbeta, Wallac).

Structure (SMILES)	proliferation inhibition in mutated, sensitive cell lines compared with wild type cell lines, in words [1]	CDK9 inhibition potency, in words (CDK9/CyclinT1)	IC50 (HCC2429 cells) [nM]	effect on proliferation of HCC2429 cells, in words (HCC2429 cells)	IC50 (HCC2429 cells; Homo sapiens, HCC2429) [nM]	residual kinase activities / kinase selectivity, in words (CDK9/CycT)
COc1ccccc1-c1cc(Nc2cccc(CS(N)(=O)=O)c2)ncn1 [1073485-20-7P, 3-[[6-(2-methoxyphenyl)-4-pyrimidinyl]amino]-Benzenemethanesulfonamide]	much more potent in mutated, sensitive cell lines	relatively weak				
O=C1NC(=NCc2cccs2)S/C1=C\c1ccc2ncccc2c1 [Ro-3306]			> 10000	did not show comparable effects		
COc1ccccc1-c1ncnc(Nc2cccc(CS(N)(=O)=O)c2)n1 [Cpd B1, 3-[(4-(2-Methoxyphenyl)-1,3,5-triazin-2-yl)amino]benzenemethanesulfonamide]				potently affected proliferation	151	inhibits only CDK9 with high potency

Source: patent US20140287454A1, “SUSCEPTIBILITY TO SELECTIVE CDK9 INHIBITORS” (MAX-PLANCK-GESELLSCHAFT ZUR FÖRDERUNG DER WISSENSCHAFTEN …, priority 2011, published 2014)
